Format in all cases: cell-based
Test [1] has as its system Trypanosoma brucei rhodensiense (STIB 900 strain). The test is described as follows: African trypanosome protozoa growth inhibition screening test. The note with it: Trypanosoma brucei, STIB900; STIB 900 strain, blood stream form, 72 hours, Alamar Blue; read-out: 50% growth inhibiting concentration Trypanosoma brucei rhod.
Test [2] has as its system Leishmania donovani (MHOM/ET/67/L82 strain). The experiment in a line: Leishmania protozoa growth inhibition screening test. Particulars: Leishmania donovani; MHOM/ET/67/L82 strain amastigote, pH 5.4, 72 hours, Alamar Blue; read-out: 50% growth inhibition concentration Leishmania donovani.
For test [3], the system named is Plasmodium falciparum K1 strain. The experiment in a line: Chloroquine resistant-Plasmodium falciparum growth inhibition screening test. Particulars: for EC50: Plasmodium falciparum, 72 h, chloroquine resistant K1 strain, 3H-hypoxanthine, 48 + 24 hours, read-out: 50% growth inhibition concentration P. falciparum K1; for Selective toxicity: chemotherapy index = EC50 rat L6 cells / EC50 chloroquine resistant P. falciparum. How it is done:
In the present example, protozoa of Plasmodium falciparum K1 strain was used. RPMI-1640 medium sterilized with a filter to which human serum was added to be 5%, was used in the experiment. Malarial parasites were cultured under 3% O2 concentration, 4% Co2 concentration, 93% N2 concentration, and at a temperature of 37° C.
The compounds of the present invention to be used in the present test and the positive target drug (chloroquine) were dissolved in DMSO to make a test solution of a predetermined concentration. Cultured malarial parasite infected-erythrocytes were collected by centrifugation, and diluted with non-infected erythrocyte so that the early infection rate is 0.15%. Hematocrit level at that time was 2.5%. 200 μL of malaria infected solution was added to wells of a 96-well culture plate, and adjusted by adding a test solution containing drug of a predetermined concentration or a drug-free DMSO. Test solutions were taken by duplicates. After culturing for 48 hours at 37° C., 0.5 μCi radioactive tritium (3H)-labeled hypoxanthine was added to each well. After further culturing for 24 hours under the same conditions, it was collected on a glass fiber filter and washed with distilled water. Radiation intensity was measured with a beta plate liquid scintillation counter (Wallac), and malarial parasite infection rates of the test solution added group and of the control group were calculated. Growth inhibition rate was calculated with the following formula based on the malarial parasite infection rate obtained in the above, to obtain a 50% growth inhibition concentration (EC50). Growth inhibition rate (%)={1−(b−a)/(c−a)}×100 a: early infection rate b: infection rate when test solution was added c: infection rate of the control

The subject of test [4] is Trypanosoma cruzi (Tulahuen C2C4 strain). The experiment in a line: American trypanosome protozoa growth inhibition screening test. The note with it: for EC50: Trypanosoma cruzi, Tulahuen C2C4 strain in rat L6 cells, 96 hours, CPRG/Nonidet, read-out: 50% growth inhibition concentration Trypanosoma cruzi; for Selective toxicity: chemotherapy index = EC50 rat L6 cells / EC50 American trypanosome protozoa. The procedure:
In the present example, amastigote and trypomastigote infected with rat L6 cells of protozoa of Trypanosoma cruzi (Tulahuen C2C4 strain) were used. As medium used in the test, RPMI 1640 medium containing L6 cells was supplemented so that L-glutamine (200 mM) becomes 1%, fetal bovine serum becomes 10%, which was cultured under CO2 concentration 5%, at 37° C.
The compounds of the present invention to be used in the test and the positive target agent (benznidazole) were dissolved in DMSO to make a test solution of a predetermined concentration. A medium containing 5×10^3 protozoa was added to wells of a 96-well culture plate, and pre-cultured for 48 hours. After replacing the medium, test solution containing drug of a predetermined concentration or a drug-free DMSO was added. Test solutions were taken by duplicates. After culturing the culture plate in an incubator for 96 hours, growth inhibition activity was tested. Test was conducted as follows.
50 μL of CPRG/Nonidet was added to each well, and allowed to rest for 2 to 6 hours. Next, the culture plate was placed on a fluorescent micro-plate reader, and the absorbance was measured at 540 nm. Growth inhibition rate was calculated with the following formula based on the protozoan infection rate which was obtained by calculating trypanosome infection rate of the test solution added group and control group, to obtain a 50% growth inhibition concentration (EC50). Growth inhibition rate (%)={1−(b−a)/(c−a)}×100 a: early infection rate b: infection rate when test solution was added c: infection rate of the control

This is an account of results in patent US8193224B2, “Medicinal composition for prevention or treatment of parasitic protozoan infection” (Fujifilm Corporation, priority 2004, dated 2012).

Regarding `CCN1/C(=C/C=c2\s/c(=C\c3sc4c5ccccc5ccc4[n+]3CC)n(CC)c2=O)Sc2ccc3ccccc3c21` [A-1], the EC50 in test [1] is 16 nM; in test [2], 8.3 nM; in test [3], 11 nM; in test [4], 5100 nM. Further, the Selective toxicity in test [3] is on record as 2700; in test [4], 5.9.

Consider `CCN1C(C)=CS/C1=C\C=c1/s/c(=C\c2sc3ccccc3[n+]2CC)n(CC)c1=O` [A-15], for which the EC50 in test [1] was 89 nM; in test [2] it was 170 nM; in test [3] it was 76 nM; in test [4], 980 nM. Moreover, the Selective toxicity in test [3] came to 291; in test [4], 22.

On to `CCN1/C(=C/C=c2\s/c(=C\C3=[N+](CC)CCS3)n(CC)c2=O)C=Cc2ccccc21` [A-10], for which the EC50 in test [1] was 200 nM; in test [2] it was 150 nM; in test [3], 120 nM; in test [4] it was 160 nM. For the same compound, the Selective toxicity amounted to 170 in test [3] and 130 in test [4].
